# Test results from US12577273B2, “Small molecule modulators of gut bacterial bile acid metabolism” (priority 2019, dated 2026).
# “And” between values parts separate entries of the source, which are not always exact repeats. Equal values may be shown once. “Also recorded” adds a separate entry of the source.
# Tests used:
# [1] = tested on: BSH activity in conventional mouse feces; experiment: Screen of inhibitors in conventional mouse feces; format: biochemical; conditions: 20 μM inhibitor, 30 min, then GCDCA-d4 100 μM, 18 hours
# Experimental: Screen of Inhibitors in Conventional Mouse Feces. […] The tubes were then frozen in dry ice for 5 mins and upon thawing were diluted with an equal volume of methanol. […] The supernatant was removed into a clean eppendorf tube and centrifuged again. […] The concentration of product detected from these assays was reported directly.
# [2] = biological target: B. theta BSH (Bacteroides thetaiotaomicron, UniProt Q8A600); experiment: Inhibitor screen using rBSH, B. theta BSH (UPLC-MS % deconjugation)
# [3] = tested on: L. plantarum; experiment: Inhibitor screen in bacteria, L. plantarum culture; format: cell-based, Lactobacillus plantarum WCFS1; conditions: FIG. 2c, L. plantarum culture; 100 μM inhibitor, 100 μM bile acid pool, 21 h; replicates 1-3
# [4] = tested on: three Gram negative and three Gram positive strains of human gut bacteria; experiment: BSH inhibition in growing cultures of six gut bacterial strains (overall statements); format: cell-based; conditions: 100 μM inhibitor, 100 μM conjugated bile acid mixture
# [5] = biological target: T1, B. longum BSH (Bifidobacterium longum, UniProt Q9KK62); experiment: Inhibitor screen using rBSH, B. longum BSH (UPLC-MS % deconjugation); format: biochemical, Bifidobacterium longum SBT2928; design: His6 (C); made in house; host or cells: Escherichia coli (as for the B. theta enzyme); conditions: 100 μM inhibitor; 2 h, 5 h and 21 h timepoints
# T1 sequence (Q9KK62 1-317): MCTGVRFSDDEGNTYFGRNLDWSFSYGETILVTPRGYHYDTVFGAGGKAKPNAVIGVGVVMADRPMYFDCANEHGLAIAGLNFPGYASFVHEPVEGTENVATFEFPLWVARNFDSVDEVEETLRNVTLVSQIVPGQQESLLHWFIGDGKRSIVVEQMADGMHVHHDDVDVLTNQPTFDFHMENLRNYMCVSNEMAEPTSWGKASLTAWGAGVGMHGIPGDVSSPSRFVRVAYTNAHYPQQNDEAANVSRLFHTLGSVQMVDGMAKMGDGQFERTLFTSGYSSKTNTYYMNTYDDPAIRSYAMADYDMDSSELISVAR
# Experimental: B. longum rBSH. Recombinant BSH from B. longum SBT2928 was expressed and purified as above, except 0.25 mM IPTG was used for protein expression and 1 mM TCEP for protein purification.
# Inhibitor Screen Using rBSHs.
# [6] = tested on: B. theta BSH KO strain; experiment: Incubation with BSH-deleted B. theta strain; conditions: 100 μM inhibitor
# [7] = tested on: B. adolescentis; experiment: Inhibitor screen in bacteria, B. adolescentis culture; format: cell-based, Bifidobacterium adolescentis L2-32; conditions: FIG. 2c, 100 μM inhibitor, 100 μM bile acid pool, 21 h, replicates 1-3
# [8] = tested on: B. vulgatus; experiment: Inhibitor screen in bacteria, B. vulgatus culture; format: cell-based, Bacteroides vulgatus ATCC 8482; conditions: FIG. 2c, 100 μM inhibitor, 100 μM bile acid pool, 21 h, replicates 1-3
# Experimental: Bacterial Culturing. All bacterial strains were cultured at 37° C. in Cullen-Haiser Gut (CHG) media (which consists of brain heart infusion media (Bacto™ BHI, BD) supplemented with 1% BBL vitamin K1-hemin solution (BD), 1% trace minerals solution (ATCC), 1% trace vitamins solution (ATCC), 5% fetal bovine serum (Hyclone), 1 g/L cellubiose, 1 g/L maltose, and 1 g/L fructose) or BHI^+ (Bacto™ BHI, BD, supplemented with 5 mg/L hemin, and 2.5 uL/L Vitamin K1). All strains were grown under anaerobic conditions in a anaerobic chamber (Coy Lab Products Airlock) with a gas mix of 5% hydrogen and 20% carbon dioxide nitrogen. Escherichia coli was grown aerobically at 37° C. in LB medium supplemented with ampicillin to select for the pET21b plasmid.
# Inhibitor Screen in Bacteria. Bacterial cultures were diluted to OD600 of 0.1 in 4 mL BHI^+, containing 100 μM taurine conjugated bile acid pool 100 μM inhibitors. […] After 21 h, serial dilutions were plated on BHI^+ agar to determine cell viability (CFU/mL). […] The cultures were spun down in a centrifuge at 2,500 g for 5 mins to obtain better separation. The organic layer was then removed and the aqueous layer was extracted again using 2 mL of ethyl acetate.
# [9] = Supplementary FIG. 3a, 5 hours, 100 μM inhibitor, 200 nM rBSH, bile acid pool, replicates 1-3
smiles,measurement,setting,value
C[C@H](CCC(=O)CF)[C@H]1CC[C@H]2[C@@H]3[C@H](O)C[C@@H]4C[C@H](O)CC[C@]4(C)[C@H]3CC[C@]12C [Compound 7],BSH activity in resuspended conventional mouse feces (in words),[1],completely inhibited BSH activity in feces
same,BSH activity in resuspended conventional mouse feces (in words),[1]; listed as compound 7,effectively inhibited BSH activity; also recorded: completely inhibited the BSH activity in feces; also recorded: almost completely inhibited BSH activity
same,% deconjugation of TβMCA,"[2]; FIG. 2a, 2 hours, 100 μM inhibitor, 200 nM rBSH, bile acid pool, replicates 1-3",0.00%
same,% deconjugation of TβMCA,"[2]; FIG. 2a, 21 hours, 100 μM inhibitor, 200 nM rBSH, bile acid pool, replicates 1-3",0.00%
same,% deconjugation of TCA,[2]; [9],0.00%
same,% deconjugation of TβMCA,[2]; [9],0.00%
same,inhibition at 100 µM,[2]; read-out: inhibition of B. theta BSH activity for 21 hours,> 98%
same,% deconjugation of TCA,[3],0.77% and 0.93% and 1.02%
same,% deconjugation of TDCA,[3],3.22% and 0.62% and 0.64%
same,% deconjugation of TUDCA,[3],1.46% and 0.97% and 1.32%
same,% deconjugation of TβMCA,[3],0.15% and 0.49% and 0.62%
same,deconjugation / BSH inhibition in cultures of the six bacterial strains (in words),[4],almost no deconjugation
same,deconjugation / BSH inhibition in cultures of the six bacterial strains (in words),[4]; listed as compound 7,almost no detectable deconjugation
same,inhibition of B. longum BSH (in words),[5],most potent inhibitor; also recorded: most active inhibitor
same,bactericidal effect on BSH-deleted B. theta (CFUs after 24 h),[6],not found to be bactericidal
same,effect on bile acid pools with B. theta BSH KO strain,"[6]; 100 μM taurine conjugated pool, 24 h",did not alter bile acid pools
same,% deconjugation of TCA,[7],2.88% and 3.09% and 2.93%
same,% deconjugation of TDCA,[7],10.43% and 6.05% and 7.35%
same,% deconjugation of TUDCA,[7],1.54% and 1.26% and 1.21%
same,% deconjugation of TβMCA,[7],0.34% and 0.37% and 0.73%
same,% deconjugation of TCA,[8],0.68% and 0.64% and 0.47%
same,% deconjugation of TDCA,[8],0.90% and 0.17% and 0.81%
same,% deconjugation of TUDCA,[8],1.90% and 3.62% and 0.80%
same,% deconjugation of TβMCA,[8],1.58% and 0.41% and 0.65%
